In patent publication US20160201063A1, “EPIGENETIC REGULATORS OF FRATAXIN” (RANA THERAPEUTICS, INC., priority 2013, published 2016):

Key:
FXN protein [1] = assay: Western blot of FXN protein in gapmer-treated GM03816 lysates; assay type: cell-based, human; settings: treated vs untreated
From the text: Next, a Western blot with the Abcam ab48281 FXN and Abcam ab125267 tubulin antibodies were run using treated and untreated GM03816 lysates.

FXN mRNA = assay: Gapmer screen in differentiated myotubes, FXN mRNA levels; assay type: cell-based; settings: 4 days after transfection
From the text: Subsequently, various oligos targeting ACTL6A, EID1, HIC1, JUND, KAT2A, PRKCD, and YEATS4 were screened in differentiated myotubes for FXN mRNA levels. Measurements were taken 4 days after transfection.

FXN protein [2] = assay: FXN protein western blot in GM03816 and GM04078 cells treated with histone lysine methyltransferase inhibitor; assay type: cell-based, human; settings: 3 days of HLMi treatment, 5 μM, 2.5 μM, 1.25 μM, vs DMSO
Experimental: Results from control cells treated with DMSO and without inhibitor treatment are also shown.
Human FRDA diseased cell lines GM03816 and GM04078 were plated at 150000 cells/well. The cells were treated at various concentrations and times with a histone lysine methyltransferase inhibitor dissolved in DMSO. The antibody used for detection of FXM protein was Abcam human FXN antibody (ab48281).

Compound	FXN protein level (western blot) (FXN protein [1])	FXN mRNA level (FXN mRNA)	FXN protein level (western blot) (FXN protein [2])
JUND-1: LNA/DNA gapmer to human JUND, SEQ ID NO 61, CCGTAGAAGGGTGTT (LNA/DNA gapmer, wing pattern not given here)	strong upregulation	upregulation of FXN mRNA	
KAT2A-05: LNA/DNA gapmer to human KAT2A, SEQ ID NO 35, CATTGACCAGCTCCA (LNA modifications, chemistry not fully specified)		upregulation of FXN mRNA	
YEATS4-9: LNA/DNA gapmer to human YEATS4, SEQ ID NO 91, AGTTTCACGACTTGC (LNA modifications, chemistry not fully specified)		upregulation of FXN mRNA	
HIC1-1: LNA/DNA gapmer to human HIC1, SEQ ID NO 70, GGCCGGTGTAGATGA (LNA modifications, chemistry not fully specified)		upregulation of FXN mRNA	
YEATS4-5: LNA/DNA gapmer to human YEATS4, SEQ ID NO 87, TCGAATTCACCCCAT (LNA modifications, chemistry not fully specified)		upregulation of FXN mRNA	
ACTL6A-04: LNA/DNA gapmer to human ACTL6A, SEQ ID NO 4, GCCCAGTAGAACGAC (LNA modifications, chemistry not fully specified)		upregulation of FXN mRNA	
KAT2A-06: LNA/DNA gapmer to human KAT2A, SEQ ID NO 36, GGCGATATACTCCTT (LNA modifications, chemistry not fully specified)		upregulation of FXN mRNA	
EID1-04: LNA/DNA gapmer to human EID1, SEQ ID NO 12, AGCTCTTCGATAAAA (LNA modifications, chemistry not fully specified)		upregulation of FXN mRNA	
ACTL6A-03: LNA/DNA gapmer to human ACTL6A, SEQ ID NO 3, GAACGACCATTAGCA (LNA modifications, chemistry not fully specified)	strong upregulation	upregulation of FXN mRNA	
PRKCD-2: LNA/DNA gapmer to human PRKCD, SEQ ID NO 42, TGCGCATAGACTGTT (LNA modifications, chemistry not fully specified)	strong upregulation	upregulation of FXN mRNA	
COc1cc2nc(N3CCCN(C)CC3)nc(NC3CCN(Cc4ccccc4)CC3)c2cc1OC [HLMi, 2-(Hexahydro-4-methyl-1H-1,4-diazepin-1-yl)-6,7-dimethoxy-N-(1-(phenylmethyl)-4-piperidinyl)-4-quinazolinamine]			FXN human protein upregulation
JUND-6: LNA/DNA gapmer to human JUND, SEQ ID NO 66, TGGCTCGTCCTTGAG (LNA modifications, chemistry not fully specified)		upregulation of FXN mRNA	
ACTL6A-02: LNA/DNA gapmer to human ACTL6A, SEQ ID NO 2, ATCGCCATCTATTTC (LNA modifications, chemistry not fully specified)		upregulation of FXN mRNA	
